Measured values reported in patent US20140287916A1, “PESTICIDAL COMPOUNDS” (SYNGENTA PARTICIPATIONS AG, priority 2011, published 2014).

| SMILES | melting point |
| --- | --- |
| O=C(NCC1(c2nc(C3CC3)cs2)CC1)c1ccccc1C(F)(F)F [A.10, N-[[1-(4-cyclopropylthiazol-2-yl)cyclopropyl]methyl]-2-(trifluoromethyl)benzamide] | 83 to 84 °C |
| O=C(NCC1(c2nc(Cl)cs2)CC1)c1cccnc1C(F)(F)F [A.21, N-[[1-(4-chlorothiazol-2-yl)cyclopropyl]methyl]-2-(trifluoromethyl)pyridine-3-carboxamide] | 146 to 147 °C |
| O=C(NCC1(c2ncc(C(F)(F)F)s2)CC1)c1ccccc1C(F)(F)F [A.29, 2-(trifluoromethyl)-N-[[1-[5-(trifluoromethyl)thiazol-2-yl]cyclopropyl]methyl]benzamide] | 94 to 96 °C |
